A word on the EC50: it is the concentration at which the effect is half-maximal. By IC50 is commonly meant the midpoint of a concentration-inhibition curve.

SMILES strings stand for the structures. Entries after “also recorded” stand apart in the source; their conditions may differ.

These results are taken from paper PMC2880850 (Journal of medicinal chemistry, 2010).

One series deals with Bcl-XL (Homo sapiens, UniProt Q07817). Kind of series: Isothermal Titration Calorimetry assay. Type of series: binding. The following applies: Kd ratio.
The test system of series [1] is B6 transgenic mice overexpressing human Bcl-2 in B-cells. As to the kind of experiment: Bcl-2 transgenic mice, spleen weight. In kind it is in vivo, mouse. The following applies: single i.p. injection at 42 mg/kg, 24 hours.
Series [2] has as its system Bax/Bak double knockout MEF cells (MEF/DKO). As to the kind of experiment: FITC-Annexin V/PI assay, Bax/Bak double knockout MEF. Type of series: cell-based, mouse. The following applies: for toxicity in MEF/DKO cells: 30 μM, FITC-Annexin V/PI.
Series [3] can be described thus: Chemical stability at different temperatures. Type of series: physicochemical.
Another series has as its system BP3 cell line. Kind of series: Apoptosis assay, Annexin V-FITC and propidium iodide, BP3. Type of series: cell-based, human.
Series [4] relates to MDA-MB-231 breast cancer cells. As to conditions: read-out: EC50 in killing MDA-MB-231 breast cancer cells; cited from earlier work.
Another series concerns the target GST–Bcl-XL ΔTM protein (Homo sapiens, UniProt Q07817). The following applies: read-out: IC50 binding to Bcl-XL in FPA assays; cited from earlier work.

Chain of GST–Bcl-XL ΔTM protein (Q07817 1-211 limits assumed, stated change not applied): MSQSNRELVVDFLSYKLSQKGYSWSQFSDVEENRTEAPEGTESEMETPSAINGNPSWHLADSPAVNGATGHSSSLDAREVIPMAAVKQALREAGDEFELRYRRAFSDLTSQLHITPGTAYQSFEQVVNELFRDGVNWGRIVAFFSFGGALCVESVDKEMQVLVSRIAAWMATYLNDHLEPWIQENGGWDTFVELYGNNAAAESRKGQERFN
Chain of Bcl-XL (Q07817 whole entry): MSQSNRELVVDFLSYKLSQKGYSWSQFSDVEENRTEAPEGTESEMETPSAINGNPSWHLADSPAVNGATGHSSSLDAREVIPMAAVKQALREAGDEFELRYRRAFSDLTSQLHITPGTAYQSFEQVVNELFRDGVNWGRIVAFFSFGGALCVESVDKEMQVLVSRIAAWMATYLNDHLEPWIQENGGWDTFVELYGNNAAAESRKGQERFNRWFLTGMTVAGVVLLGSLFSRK

For the molecule `Cc1cc2c(C(=O)NC[C@H](C)c3ccccc3)c(O)c(O)cc2c(O)c1-c1c(C)cc2c(C(=O)NC[C@H](C)c3ccccc3)c(O)c(O)cc2c1O` (single isomer, unassigned) [Compound 11], on Bcl-XL, the “times more potent than other isomers 12–14 in ITC assay” value is recorded as 4–20 times. The “inhibition of tumor growth” value in the series with M2182 tumor xenografts (5 mg/kg i.p. every 2 days, nine injections, both flanks) is “near complete inhibition of tumor growth”. Moreover, the tolerability of treatment entry with M2182 tumor xenografts (mouse, in vivo, ip) was “no apparent signs of toxicity”. Also, in series [1], the spleen weight reduction result was “more than 30%”. Moreover, in series [2], the “cytotoxicity against bax−/−bak−/− cells” value is reported as “less cytotoxicity against bax^−/−bak^−/− cells compared to compound 4; also recorded: little cytotoxicity” and the “toxicity in MEF/DKO cells” value was “slight toxicity”. In series [3], the chemical stability entry was “better chemical stability compared to other compounds (12–14)”.
For the molecule `CN(C)CC[C@H](CSc1ccccc1)Nc1ccc(S(=O)(=O)NC(=O)c2ccc(N3CCN(Cc4ccccc4-c4ccc(Cl)cc4)CC3)cc2)cc1[N+](=O)[O-]` [ABT-737], the “apoptosis induction / cytotoxic activity against BP3 cell line” value in the series on BP3 cell line is reported as “no cytotoxic activity”.
On to `Cc1cc2c(C(=O)NC[C@@H](C)c3ccccc3)c(O)c(O)cc2c(O)c1-c1c(C)cc2c(C(=O)NC[C@@H](C)c3ccccc3)c(O)c(O)cc2c1O` [Compound 14, (R)-1,1′,6,6′,7,7′-hexahydroxy-3,3′-dimethyl-N^5-((S)-2-phenylpropyl)-N^5′-((S)-2-phenylpropyl)-2,2′-binaphthyl-5,5′-dicarboxamide], for which the “toxicity in MEF/DKO cells” value in series [2] was “almost equally effective in killing both MEF/WT and MEF/DKO”.
On to `Cc1cc2c(C(=O)NC[C@H](C)c3ccccc3)c(O)c(O)cc2c(O)c1-c1c(C)cc2c(C(=O)NC[C@H](C)c3ccccc3)c(O)c(O)cc2c1O` (single isomer, unassigned) [Compound 12], for which, in series [1], the spleen weight reduction result is reported as “weak in vivo activity”.
In the case of `Cc1cc2c(C(C)C)c(O)c(O)c(C=O)c2c(O)c1-c1c(C)cc2c(C(C)C)c(O)c(O)c(C=O)c2c1O` (single isomer, unassigned) [(−) 1, Gossypol], the EC50 in series [4] is around 2 µM. Besides, the IC50 at GST–Bcl-XL ΔTM protein is 0.48 µM.
`Cc1cc2c(C(C)C)c(O)c(O)c(C=O)c2c(O)c1-c1c(C)cc2c(C(C)C)c(O)c(O)c(C=O)c2c1O` (single isomer, unassigned) [(+) 1, Gossypol]: in series [4], the EC50 is around 10 µM.
